Data as given in patent US11084800B2 (Achillion Pharmaceuticals, Inc., priority 2017, dated 2021).

Molecular target: Human Factor D (Homo sapiens (Human), UniProt P00746)
Assay: Human Factor D Assay
Type: biochemical
Settings: Factor D inhibition, assay of Example 10; read-out: IC5 (Stars)
In short: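 Serum-purified Factor D (80 nM final) preincubated 5 min at room temperature with compound in 50 mM Tris, 1 M NaCl, pH 7.5. Z-L-Lys-SBz and DTNB added at 100 μM each; A405 followed every 30 s for 30 min. IC50 from nonlinear regression of rates versus concentration.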

Sequence of Human Factor D (P00746 26-253): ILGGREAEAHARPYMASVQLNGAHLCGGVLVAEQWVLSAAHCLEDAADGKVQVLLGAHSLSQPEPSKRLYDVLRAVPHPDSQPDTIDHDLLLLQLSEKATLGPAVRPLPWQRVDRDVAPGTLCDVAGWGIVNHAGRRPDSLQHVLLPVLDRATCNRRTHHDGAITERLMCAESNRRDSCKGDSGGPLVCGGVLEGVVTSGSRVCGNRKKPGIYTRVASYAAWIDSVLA

`CC(=O)c1nn(CC(=O)N2[C@H](C(=O)Nc3nc(Br)ccc3C)C[C@@]3(CN4CC5(CC5)C4)C[C@@H]23)c2c(C)nc(-c3cnc(C)nc3)cc12` [Compound 370, (1R,3S,5R)-5-(5-azaspiro[2.3]hexan-5-ylmethyl)-2-(2-(3-acetyl-7-methyl-5-(2-methylpyrimidin-5-yl)-1H-pyrazolo[3,4-c]pyridin-1-yl)acetyl)-N-(6-bromo-3-methylpyridin-2-yl)-2-azabicyclo[3.1.0]hexane-3-carboxamide] and `CC(=O)c1nn(CC(=O)N2[C@H](C(=O)Nc3nc(Br)ccc3C)C[C@@]3(Cc4nc(C)no4)C[C@@H]23)c2c(C)cc(-c3cnc(C)nc3)cc12` [Compound 372, (1R,3S,5R)-2-(2-(3-acetyl-7-methyl-5-(2-methylpyrimidin-5-yl)-1H-indazol-1-yl)acetyl)-N-(6-bromo-3-methylpyridin-2-yl)-5-((3-methyl-1,2,4-oxadiazol-5-yl)methyl)-2-azabicyclo[3.1.0]hexane-3-carboxamide] cannot be ordered by IC50: < 1 µM for the first, < 1 µM for the second.

`CC(=O)c1nn(CC(=O)N2[C@H](C(=O)Nc3nc(Br)ccc3C)C[C@@]3(C)C[C@@H]23)c2cc(C)c(-c3cnc(C)nc3)cc12` [Compound 373, (1R,3S,5R)-2-(2-(3-acetyl-6-methyl-5-(2-methylpyrimidin-5-yl)-1H-indazol-1-yl)acetyl)-N-(6-bromo-3-methylpyridin-2-yl)-5-methyl-2-azabicyclo[3.1.0]hexane-3-carboxamide] and `COc1cc2c(cc1-c1cnc(C)nc1)c(C(C)=O)nn2CC(=O)N1[C@H](C(=O)Nc2nc(Br)ccc2C)C[C@@]2(C)C[C@@H]12` [Compound 394, (1R,3S,5R)-2-(2-(3-acetyl-6-methoxy-5-(2-methylpyrimidin-5-yl)-1H-indazol-1-yl)acetyl)-N-(6-bromo-3-methylpyridin-2-yl)-5-methyl-2-azabicyclo[3.1.0]hexane-3-carboxamide] cannot be ordered by IC50: < 1 µM for the first, < 1 µM for the second.

`CC(=O)c1nn(CC(=O)N2[C@H](C(=O)Nc3nc(Br)ccc3C)C[C@@]3(CCN(C)C)C[C@@H]23)c2c(CF)cc(-c3cnc(C)nc3)cc12` [Compound 377, (1R,3S,5R)-2-(2-(3-acetyl-7-(fluoromethyl)-5-(2-methylpyrimidin-5-yl)-1H-indazol-1-yl)acetyl)-N-(6-bromo-3-methylpyridin-2-yl)-5-(2-(dimethylamino)ethyl)-2-azabicyclo[3.1.0]hexane-3-carboxamide] and `CC(=O)c1nn(CC(=O)N2[C@H](C(=O)Nc3nc(Br)ccc3C)C[C@@]3(CCCCN(C)C)C[C@@H]23)c2c(CF)cc(-c3cnc(C)nc3)cc12` [Compound 378, (1R,3S,5R)-2-(2-(3-acetyl-7-(fluoromethyl)-5-(2-methylpyrimidin-5-yl)-1H-indazol-1-yl)acetyl)-N-(6-bromo-3-methylpyridin-2-yl)-5-(4-(dimethylamino)butyl)-2-azabicyclo[3.1.0]hexane-3-carboxamide] cannot be ordered by IC50: < 1 µM for the first, < 1 µM for the second.

`CC(=O)c1nn(CC(=O)N2[C@H](C(=O)Nc3nc(C(F)(F)F)ccc3C)C[C@@]3(CCCN(C)C)C[C@@H]23)c2c(CF)cc(-c3cnc(C)nc3)cc12` [Compound 380, (1R,3S,5R)-2-(2-(3-acetyl-7-(fluoromethyl)-5-(2-methylpyrimidin-5-yl)-1H-indazol-1-yl)acetyl)-5-(3-(dimethylamino)propyl)-N-(3-methyl-6-(trifluoromethyl)pyridin-2-yl)-2-azabicyclo[3.1.0]hexane-3-carboxamide] and `CC(=O)c1nn(CC(=O)N2[C@H](C(=O)Nc3nc(Br)ccc3C)C[C@@]3(COC(F)F)C[C@@H]23)c2cnc(-c3cnc(C)nc3)cc12` [Compound 384, (1R,3S,5S)-2-(2-(3-Acetyl-5-(2-methylpyrimidin-5-yl)-1H-pyrazolo[3,4-c]pyridin-1-yl)acetyl)-N-(6-bromo-3-methylpyridin-2-yl)-5-((difluoromethoxy)methyl)-2-azabicyclo[3.1.0]hexane-3-carboxamide] cannot be ordered by IC50: < 1 µM for the first, < 1 µM for the second.

First: CC(=O)c1nn(CC(=O)N2[C@H](C(=O)Nc3nc(Br)ccc3Cl)C[C@@]3(C)C[C@@H]23)c2ccc(-c3cnc(C)nc3)cc12 [Compound 386, (1R,3S,5R)-2-(2-(3-acetyl-5-(2-methylpyrimidin-5-yl)-1H-indazol-1-yl)acetyl)-N-(6-bromo-3-chloropyridin-2-yl)-5-methyl-2-azabicyclo[3.1.0]hexane-3-carboxamide]
Second: Cc1ncc(-c2ccc3c(c2)c(C(=O)c2ncc[nH]2)nn3CC(=O)N2[C@H](C(=O)Nc3nc(Br)ccc3C)C[C@@]3(C)C[C@@H]23)cn1 [Compound 389, (1R,3S,5R)-2-(2-(3-(1H-Imidazole-2-carbonyl)-5-(2-methylpyrimidin-5-yl)-1H-indazol-1-yl)acetyl)-N-(6-bromo-3-methylpyridin-2-yl)-5-methyl-2-azabicyclo[3.1.0]hexane-3-carboxamide]
The IC50 of the first is lower: < 1 µM for the first, > 10 µM for the second.

`CC(=O)c1nn(CC(=O)N2C[C@H]3C[C@H]3[C@H]2C(=O)Nc2nc(Br)ccc2C)c2c(C(C)C)nc(-c3cnc(C)nc3)cc12` [Compound 388, (1R,25,5S)-3-(2-(3-acetyl-7-isopropyl-5-(2-methylpyrimidin-5-yl)-1H-pyrazolo[3,4-c]pyridin-1-yl)acetyl)-N-(6-bromo-3-methylpyridin-2-yl)-3-azabicyclo[3.1.0]hexane-2-carboxamide] and `CC(=O)c1nn(CC(=O)N2C[C@H]3C[C@H]3[C@H]2C(=O)Nc2nc(Br)c(F)cc2C)c2c(C)nc(-c3cnc(C)nc3)cc12` [Compound 393, (1R,2S,5S)-3-(2-(3-acetyl-7-methyl-5-(2-methylpyrimidin-5-yl)-1H-pyrazolo[3,4-c]pyridin-1-yl)acetyl)-N-(6-bromo-5-fluoro-3-methylpyridin-2-yl)-3-azabicyclo[3.1.0]hexane-2-carboxamide] cannot be ordered by IC50: < 1 µM for the first, < 1 µM for the second.

Same assay, conditions: Table 8; Factor D 80 nM, substrate Z-L-Lys-SBz; read-out: IC50

`COC(=O)CCCCCCCCCCCCCCCCC(=O)N[C@@H](CCC(=O)NCCOCCOCC(=O)NCCOCCOCC(=O)NC[C@@]12C[C@@H](C(=O)Nc3nc(Br)ccc3C)N(C(=O)Cn3nc(C(C)=O)c4cc(-c5cnc(C)nc5)cc(C)c43)[C@@H]1C2)C(=O)OC` [Compound 391, Methyl (S)-1-((1R,3S,5R)-2-(2-(3-acetyl-7-methyl-5-(2-methylpyrimidin-5-yl)-1H-indazol-1-yl)acetyl)-3-((6-bromo-3-methylpyridin-2-yl)carbamoyl)-2-azabicyclo[3.1.0]hexan-5-yl)-24-(methoxycarbonyl)-3,12,21,26-tetraoxo-5,8,14,17-tetraoxa-2,11,20,25-tetraazatritetracontan-43-oate] and `CC(=O)c1nn(CC(=O)N2[C@H](C(=O)Nc3nc(Br)ccc3C)C[C@@]3(CNC(=O)COCCOCCNC(=O)COCCOCCNC(=O)CC[C@H](NC(=O)CCCCCCCCCCCCCCCCC(=O)O)C(=O)O)C[C@@H]23)c2c(C)cc(-c3cnc(C)nc3)cc12` [Compound 392, (S)-1-((1R,3S,5R)-2-(2-(3-Acetyl-7-methyl-5-(2-methylpyrimidin-5-yl)-1H-indazol-1-yl)acetyl)-3-((6-bromo-3-methylpyridin-2-yl)carbamoyl)-2-azabicyclo[3.1.0]hexan-5-yl)-24-carboxy-3,12,21,26-tetraoxo-5,8,14,17-tetraoxa-2,11,20,25-tetraazatritetracontan-43-oic acid] cannot be ordered by IC50: < 1 µM for the first, < 1 µM for the second.
